Assay [1] relates to Blumeria graminis fsp. hordei. The assay is described as follows: In vivo preventive test on Blumeria graminis (barley). Conditions: 500 ppm of active ingredient, evaluated 7 days after inoculation. The procedure: EXAMPLE B: IN VIVO PREVENTIVE TEST ON BLUMERIA GRAMINIS (BARLEY) Solvent: 49 parts by weight of N,N-dimethylacetamide Emulsifier: 1 part by weight of alkylaryl polyglycol ether To produce a suitable preparation of active compound, 1 part by weight of active compound or active compound combination is mixed with the stated amounts of solvent and emulsifier, and the concentrate is diluted with water to the desired concentration. To test for preventive activity, young plants are sprayed with the preparation of active compound or active compound combination at the stated rate of application. After the spray coating has been dried, the plants are dusted with spores of Blumeria graminis fsp. hordei. The plants are placed in the greenhouse at a temperature of approximately 18° C. and a relative atmospheric humidity of approximately 80% to promote the development of mildew pustules. The test is evaluated 7 days after the inoculation. 0% means an efficacy which corresponds to that of the untreated control, while an efficacy of 100% means that no disease is observed. Under these conditions, total protection is observed at a dose of 500 ppm of active ingredient with the following compounds from table B: […]

In assay [2] the test system is Fusarium nivale (var. majus). The assay is described as follows: In vivo curative test on Fusarium nivale (var. majus) (wheat). Conditions: 500 ppm of active ingredient, evaluated 5 days after inoculation. The protocol:
EXAMPLE C: IN VIVO CURATIVE TEST ON FUSARIUM NIVALE (VAR. MAJUS) (WHEAT) Solvent: 49 parts by weight of N,N-dimethylacetamide Emulsifier: 1 part by weight of alkylaryl polyglycol ether To produce a suitable preparation of active compound, 1 part by weight of active compound or active compound combination is mixed with the stated amounts of solvent and emulsifier, and the concentrate is diluted with water to the desired concentration. To test for curative activity, young plants are slightly injured by using a sandblast and afterwards they are sprayed with a conidia suspension of Fusarium nivale (var. majus) and placed for 24 hours in a greenhouse under a translucent incubation cabinet at a temperature of approximately 10° C. and a relative atmospheric humidity of approximately 100% and are subsequently sprayed with the preparation of active compound at the stated rate of application. After the spray coating has been dried, the plants remain in the greenhouse under translucent incubation cloches at a temperature of approximately 10° C. and a relative atmospheric humidity of approximately 100%. The test is evaluated 5 days after the inoculation. 0% means an efficacy which corresponds to that of the untreated control, while an efficacy of 100% means that no disease is observed. Under these conditions, total protection is observed at a dose of 500 ppm of active ingredient with the following compounds from table C: […]

A further assay deals with Leptosphaeria nodorum. Kind of assay: In vivo preventive test on Leptosphaeria nodorum (wheat). Conditions: 500 ppm of active ingredient, evaluated 8 days after inoculation. The procedure:
EXAMPLE D: IN VIVO PREVENTIVE TEST ON LEPTOSPHAERIA NODORUM (WHEAT) Solvent: 49 parts by weight of N,N-dimethylacetamide Emulsifier: 1 part by weight of alkylaryl polyglycol ether To produce a suitable preparation of active compound, 1 part by weight of active compound or the compound combination is mixed with the stated amounts of solvent and emulsifier, and the concentrate is diluted with water to the desired concentration. To test for protective activity, young plants are sprayed with a preparation of active compound or active compound combination at the stated rate of application. After the spray coating has dried on, the plants are sprayed with a spore suspension of Leptosphaeria nodorum. The plants remain for 48 hours in an incubation cabinet at 20° C. and a relative atmospheric humidity of 100%. The plants are placed in a greenhouse at a temperature of approximately 22° C. and a relative atmospheric humidity of approximately 80%. The test is evaluated 8 days after the inoculation. 0% means an efficacy which corresponds to that of the control, while an efficacy of 100% means that no disease is observed. Under these conditions, good (at least 75%) to total protection is observed at a dose of 500 ppm of active ingredient with the following compounds from table D: Under the same conditions, excellent protection (greater than 94%) is observed at a dose of 500 ppm of active ingredient with compound 2, whereas poor protection (less than 30%) is observed with the isosteric analogue compound CMP1 claimed in WO-2009/016218 as in table D2.

The subject of another assay is Sphaerotheca fuliginea. The assay is described as follows: In vivo preventive test on Sphaerotheca fuliginea (cucumbers). Conditions: 100 ppm of active ingredient, evaluated 7 days after inoculation. The protocol: EXAMPLE H: IN VIVO PREVENTIVE TEST ON SPHAEROTHECA FULIGINEA (CUCUMBERS) Solvent: 24.5 parts by weight of acetone • 24.5 parts by weight of N,N-dimethylacetamide Emulsifier: 1 part by weight of alkylaryl polyglycol ether To produce a suitable preparation of active compound, 1 part by weight of active compound is mixed with the stated amounts of solvent and emulsifier, and the concentrate is diluted with water to the desired concentration. To test for protect activity, young plants are sprayed with the preparation of active compound at the stated rate of application. After the spray coating has dried on, the plants are inoculated with an aqueous spore suspension of Sphaerotheca fuliginea. The plants are then placed in a greenhouse at approximately 23° C. and a relative atmospheric humidity of approximately 70%. The test is evaluated 7 days after the inoculation. 0% means an efficacy which corresponds to that of the untreated control, while an efficacy of 100% means that no disease is observed. Under these conditions, high (at least 90%) to total protection is observed at a dose of 100 ppm of active ingredient with the following compounds from table H: Under the same conditions, high protection (greater than 80%) is observed at a dose of 500 ppm of active ingredient with compound 7, whereas poor protection (less than 20%) is observed with the isosteric analogue compound CMP2 claimed in WO-2009/016218 as in table H2.

A further assay relates to Uromyces appendiculatus. The assay is described as follows: In vivo preventive test on Uromyces appendiculatus (beans). Conditions: 100 ppm of active ingredient, evaluated 10 days after inoculation. The protocol:
EXAMPLE I: IN VIVO PREVENTIVE TEST ON UROMYCES APPENDICULATUS (BEANS) Solvent: 24.5 parts by weight of acetone • 24.5 parts by weight of N,N-dimethylacetamide Emulsifier: 1 part by weight of alkylaryl polyglycol ether To produce a suitable preparation of active compound, 1 part by weight of active compound is mixed with the stated amounts of solvent and emulsifier, and the concentrate is diluted with water to the desired concentration. To test for preventive activity, young plants are sprayed with the preparation of active compound at the stated rate of application. After the spray coating has dried on, the plants are inoculated with an aqueous spore suspension of the causal agent of bean rust (Uromyces appendiculatus) and then remain for 1 day in an incubation cabinet at approximately 20° C. and a relative atmospheric humidity of 100%. The plants are then placed in a greenhouse at approximately 21° C. and a relative atmospheric humidity of approximately 90%. The test is evaluated 10 days after the inoculation. 0% means an efficacy which corresponds to that of the untreated control, while an efficacy of 100% means that no disease is observed. Under these conditions, excellent (at least 95%) to total protection is observed at a dose of 100 ppm of active ingredient with the following compounds from table I: […]

The record followed here is US10093611B2, “Benzocycloalkenes as antifungal agents” (Bayer Intellectual Property GmbH, priority 2010, dated 2018).

Turning to `CC(C1Cc2ccccc2C1)N(C(=O)c1c(C(F)F)nn(C)c1F)C1CC1` (stereo not shown) [Example 14, N-cyclopropyl-3-(difluoromethyl)-N-[1-(indan-2-yl)ethyl]-5-fluoro-1-methyl-1H-pyrazole-4-carboxamide], the Efficacy (in assay [1]; in assay [2]; in the assay on Leptosphaeria nodorum; in the assay on Sphaerotheca fuliginea) was 100% in each case.
Take `CC(C1CCc2ccccc2C1)N(C(=O)c1c(C(F)F)nn(C)c1F)C1CC1` (stereo not shown) [Example 16]: the Efficacy is listed as 100% in assay [1], 100% in assay [2], 86% in the assay on Leptosphaeria nodorum and 100% in the assay on Sphaerotheca fuliginea.
As for `CCc1nn(C)c(F)c1C(=O)N(C1CC1)C(C)C1Cc2ccccc2C1` (stereo not shown) [Example 12], the Efficacy was 100% in assay [1]; 100% in assay [2]; 100% in the assay on Leptosphaeria nodorum; 95% in the assay on Sphaerotheca fuliginea; 100% with Uromyces appendiculatus.
For the compound `Cc1nn(C)c(F)c1C(=O)N(C1CC1)C(C)C1Cc2ccccc2C1` (stereo not shown) [Example 11], the Efficacy in assay [1] came to 100%; in assay [2], 100%; with Leptosphaeria nodorum, 100%; with Sphaerotheca fuliginea, 92%; in the assay with Uromyces appendiculatus, 100%.
As to `CC(C1Cc2ccccc2C1)N(C(=O)c1cn(C)nc1C(F)F)C1CC1` (stereo not shown) [Example 13], the Efficacy is given as 100% in assay [1]; 100% in assay [2]; 100% in the assay with Leptosphaeria nodorum; 95% in the assay on Sphaerotheca fuliginea; 98% in the assay on Uromyces appendiculatus.
Regarding `CCC(C1CCc2ccccc2C1)N(C(=O)c1c(C(F)F)nn(C)c1F)C1CC1` (stereo not shown) [Example 17], the figures for the Efficacy (in assay [2]; with Leptosphaeria nodorum) were 100% and 80%, respectively.
